One assay relates to E. coli. The assay is described as follows: Synergy results for co-administration of A3-APO (ARV-1501). It is filed as cell-based. As to conditions: antibiotic co-administered with A3-APO (ARV-1501).
The next assay deals with H. influenzae. The assay is described as above. Format: cell-based. To be noted: antibiotic co-administered with A3-APO (ARV-1501).
A further assay concerns K. pneumoniae. The assay is described as above. It is filed as cell-based. As to conditions: antibiotic co-administered with A3-APO (ARV-1501). As to the method: Restoring antibiotic sensitivity to resistant bacteria. A colistin-resistant, carbapenem-resistant strain of K. pneumonia (K97/09) from a clinical isolate was used to test the effect of A3-APO treatment on antibiotic resistance. An in vitro assay measuring visible bacterial growth in the presence of A3-APO and imipenem or colistin was performed.
Synergy Results for Co-administration of A3-APO (ARV-1501)

The next assay concerns K. pneumoniae K97/09. Kind of assay: Bacteremia Synergy Assay 1 (mouse systemic infection). To be noted: 30 mg/kg sc 3 times (Group 2). It is filed as in vivo. Here is the method: In vivo Studies. Animals. Assays 1-2. NMRI (Naval Medical Research Institute) BR or CD-1 mice (Toxi-Coop Zrt, Budapest, Hungary) were housed in plastic type 2 cages, 3-5 mice per cage, on softwood granules as bedding. The room was kept between 21° C. and 25° C. with 12 h light:12 h dark cycles. The animals had free access to tap water and pelleted rodent food. Upon completion of the experiments, surviving mice were euthanized by diethyl ether inhalation. Animals were maintained and handled in accordance with the recommendations of the Guidelines for the Care and Use of Laboratory Animals, and the protocols were approved by the Animal Care Committee of Semmelweis University. The planned 15 treatment groups of mice were divided roughly equally into two assays with 8 and 7 treatment groups and untreated controls in each assay for safe and humane handling of large numbers of mice.
Infection models. NMRI mice weighing approximately 20 g (4 weeks old) were infected by intraperitoneal (ip) injection of 4×10^8 CFU/g K. pneumoniae K97/09. Mice were randomly allocated to 8 and […] groups (5 mice per group).
Bacteremia Synergy Assay 1.
Group 1: phosphate buffered saline (PBS) subcutaneously (sc) 1 h after infection. Group 2: imipenem 30 mg/kg sc at 2, 14 and 26 h after infection. […]
Survival was recorded hourly 24-36 h after infection. […]

The subject of assay [1] is multidrug-resistant Klebsiella pneumoniae K97/09. The assay is described as follows: microbe, parasite or virus in culture.
Assay [2] has as its system multidrug-resistant Acinetobacter baumannii BAA-1605. The assay is described as follows: microbe, parasite or virus in culture. To be noted: BAA1605.
For the next assay, the system named is A. baumannii ATCC 19606. The assay is described as follows: Antibacterial assay (MIC). To be noted: A. baumannii ATCC 19606, MHB, 37° C. It is filed as cell-based. Here is the method: (§1) Antibacterial assay. Antibacterial assays are undertaken to determine the minimal inhibitory concentrations (MIC) as described previouslyl^6.
(§2) Antibacterial activity. Each C-terminal modified PrAMP DTM-linked tetramer is assayed against nosocomial Gram-negative bacteria, including E. coli ATCC 29222, K. pneumoniae ATCC 13883, A. baumannii ATCC 19606 and P. aeruginosa ATCC 47085.

The next assay has as its system E. coli ATCC 29222. The assay is described as follows: Antibacterial assay (MIC). Format: cell-based. As to conditions: E. coli ATCC 29222, MHB, 37° C. As to the method: as §1, §2
The test system of the next assay is K. pneumoniae ATCC 13883. The assay is described as follows: Antibacterial assay (MIC). Format: cell-based. To be noted: K. pneumoniae ATCC 13883, MHB, 37° C. Here is the method: as §1, §2
In the next assay the test system is P. aeruginosa ATCC 47085. The assay is described as follows: Antibacterial assay (MIC). It is filed as cell-based. To be noted: P. aeruginosa ATCC 47085, MHB, 37° C. As to the method:
as §1, §2

Assay [3] deals with panel of Gram-negative nosocomial bacteria (E. coli, K. pneumoniae, A. baumannii, P. aeruginosa). The assay is described as follows: Antibacterial assay (MIC), ranges over the panel. Format: cell-based. To be noted: against E. coli, A. baumannii and P. aeruginosa. As to the method: as §1, §2
In assay [4] the test system is Klebsiella pneumoniae K97/09. The assay is described as follows: Checkerboard synergy assay (FIC index). Format: cell-based. To be noted: K. pneumoniae K97/09. Here is the method: In vitro activity and synergy. Minimal inhibitory concentration (MIC) assays were performed using sterile 96-well polypropylene plates in a final volume of […]. Briefly, 50 μL of midlogarithmic phase bacterial cultures were diluted to 5×10^5 CFU/mL in Mueller-Hinton broth (MHB) and then added to 50 μL of the serially diluted antibiotic. The highest A3-APO and other test compound concentration evaluated was 256 mg/L. Cultures were incubated at 37° C. for 16-20 h without shaking. MICs were identified as the lowest antimicrobial concentrations at which turbidity was not observed. Antimicrobial synergy was determined by evaluating the fractional inhibitory concentration (FIC) index and was characterized by a conventional checkerboard assay (Fernandez-Cuenca et al., 2003). Bacteria grown to mid-logarithmic phase in MHB were pre-incubated with serially diluted concentrations of peptides such as A3-APO, and the antimicrobial controls, imipenem, colistin or meropenem.
The sum of the FICs (Σ FIC) was calculated with the equation Σ FIC=FICA+FICB=(CA/MICA)+(CB/MICB), where MICA and MICB are the MICs of antimicrobial A and B alone, respectively, and CA and CB are the concentrations of the drugs when combined, respectively. Synergy was defined as a Σ FICs≤0.5 and additive activity was defined as a Σ FICs>0.5≤1.0.

Assay [5] has as its system Acinetobacter baumannii BAA-1605. Format: cell-based. To be noted: A. baumannii BAA-1605.
Protocol: In vitro activity and synergy. Minimal inhibitory concentration (MIC) assays were performed using sterile 96-well polypropylene plates in a final volume of 100 mL. Briefly, 50 μL of midlogarithmic phase bacterial cultures were diluted to 5×10^5 CFU/mL in Mueller-Hinton broth (MHB) and then added to 50 μL of the serially diluted antibiotic. […] MICs were identified as the lowest antimicrobial concentrations at which turbidity was not observed. Antimicrobial synergy was determined by evaluating the fractional inhibitory concentration (FIC) index and was characterized by a conventional checkerboard assay (Fernandez-Cuenca et al., 2003).
Another assay deals with bacterial DnaK (Escherichia coli, UniProt P0A6Y8). To be noted: Cassone et al., 2008; cited from earlier work.
Another assay has as its system S. typhimurium. Kind of assay: Synergy results for co-administration of A3-APO (ARV-1501). It is filed as cell-based. To be noted: antibiotic co-administered with A3-APO (ARV-1501).

Converted amounts (≈) assume the structure as drawn. *1 amine or outer side, *2 acyl side, *3 side chain or, on linkers, in order; H or OH if unused. Bridges are numbered along the chain shown (N, C = ends). Roman numbers before positions name the chains, in order. [ ]: non-standard residue; d: D form. The star is where a group is joined. Maleimide(3,4-diyl) = O=C1NC(=O)C([*:2])=C1[*:1]; Ac6c = NC1(C(=O)O)CCCCC1; Dab = NCC[C@H](N)C(=O)O; NHNH2 = NN*

Sequence of bacterial DnaK (P0A6Y8 whole entry): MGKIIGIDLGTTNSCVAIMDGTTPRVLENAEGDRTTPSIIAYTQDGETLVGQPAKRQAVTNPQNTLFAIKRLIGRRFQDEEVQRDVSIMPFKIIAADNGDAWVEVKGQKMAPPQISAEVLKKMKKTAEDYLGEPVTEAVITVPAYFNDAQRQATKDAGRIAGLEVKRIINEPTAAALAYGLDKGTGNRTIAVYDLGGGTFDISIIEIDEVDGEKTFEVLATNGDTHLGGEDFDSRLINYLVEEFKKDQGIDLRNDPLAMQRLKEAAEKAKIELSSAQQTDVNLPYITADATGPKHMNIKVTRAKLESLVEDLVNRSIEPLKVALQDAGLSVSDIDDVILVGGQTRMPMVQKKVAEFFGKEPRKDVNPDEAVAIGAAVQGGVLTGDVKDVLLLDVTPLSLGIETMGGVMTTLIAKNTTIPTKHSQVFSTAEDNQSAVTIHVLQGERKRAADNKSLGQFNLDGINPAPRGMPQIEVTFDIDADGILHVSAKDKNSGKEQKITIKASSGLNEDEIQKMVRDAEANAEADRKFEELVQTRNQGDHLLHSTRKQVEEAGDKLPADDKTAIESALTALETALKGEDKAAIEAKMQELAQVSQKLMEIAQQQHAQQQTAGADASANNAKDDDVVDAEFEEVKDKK

For the compound `O=C(N[C@H](CO)[C@H](O)c1ccc([N+](=O)[O-])cc1)C(Cl)Cl` [chloramphenicol], the Outcome entry with E. coli, in the assay with H. influenzae and with K. pneumoniae was “MIC lowered with priming” throughout.
`C[C@@H](O)[C@H]1C(=O)N2C(C(=O)O)=C(SCCN=CN)C[C@H]12` [imipenem]: the “survival improvement at 36 h over untreated controls” value in the assay with K. pneumoniae K97/09 is listed as 40%. For the same compound, the MIC was over 256 µg/mL in assay [1] and 64 µg/mL (≈ 214 µM) in assay [2].
“I: H-[Ac6c]RPDKPRPYLPRPRPPRPVR[Dab]C-NHNH2 / II: H-[Ac6c]RPDKPRPYLPRPRPPRPVR[Dab]C-NHNH2 / III: H-[Ac6c]RPDKPRPYLPRPRPPRPVR / IV: H-[Ac6c]RPDKPRPYLPRPRPPRPVR (amide I:21-III:C, II:21-IV:C; linker I:22-II:22 via Maleimide(3,4-diyl)) [tetramer-DTM-NHNH2]”: the “Antibacterial activity, MIC” value with A. baumannii ATCC 19606 was 2.33 ± 0.48 µM; in the assay with E. coli ATCC 29222, 0.93 ± 0.02 µM; with K. pneumoniae ATCC 13883, 0.49 ± 0.01 µM; with P. aeruginosa ATCC 47085, 1.14 ± 0.03 µM. The “MIC (range over the bacteria)” value in [3] is 0.49 to 2.33 µM.
Take “I: H-[Ac6c]RPDKPRPYLGRPRPPRPVR[Dab]-NH2 / II: H-[Ac6c]RPDKPRPYLGRPRPPRPVR (amide I:21-II:C) [Gly11, (H-Chex-Arg-Pro-Asp-Lys-Pro-Arg-Pro-Tyr-Leu-Gly-Arg-Pro-Arg-Pro-Pro-Arg-Pro-Val-Arg)2-Dab-NH2]”: the “improvement in the MIC values when added together with imipenem or colistin” value in assay [4] and in [5] was “failed to exert any improvement” each time. Further, at bacterial DnaK, the DnaK binding entry is listed as “fails to bind bacterial DnaK”.
In the case of `Cc1cc(NS(=O)(=O)c2ccc(N)cc2)no1` [sulfamethoxazole], the Outcome result in the assay with S. typhimurium is “MIC lowered with priming”.
With `CC1(C)S[C@@H]2[C@H](NC(=O)[C@H](N)c3ccc(O)cc3)C(=O)N2[C@H]1C(=O)O` [amoxicillin], the results for the Outcome result in the assay with E. coli and with H. influenzae were “reversal of TEM-1 related” and “MIC lowered with priming”, respectively.
